In PubChem BioAssay AID330 (DTP/NCI, 2004):
Several values for one entry are separate records, joined by “and”; a condition that tells them apart may be missing. Equal values may be shown once. Toxic doses and inconclusive results are not listed.

Test system: P388 leukemia ip, CD2F1 mice, survival T/C
Assay: NCI In Vivo Anticancer Drug Screen. Data for tumor model P388 Leukemia (intraperitoneal) in CD2F1 (CDF1) mice
Settings: endpoint: median survival time, higher = longer survival
How it was run: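 Mice carrying the transplanted tumor received test compound or vehicle. Survival was recorded in each group, and the value is the treated-group measurement divided by that of the vehicle-treated control group.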

[1] = dose: 50.0 mg/kg/injection, schedule: Q01DX009 (ip), vehicle: saline with Tween-80
[2] = dose: 100.0 mg/kg/injection, schedule: Q01DX009 (ip), vehicle: saline with Tween-80
[3] = dose: 200.0 mg/kg/injection, schedule: Q01DX009 (ip), vehicle: saline with Tween-80
[4] = dose: 50.0 mg/kg/injection, schedule: Q01DX005 (ip), vehicle: Klucel (hydroxypropylcellulose) (HPC)
[5] = dose: 100.0 mg/kg/injection, schedule: Q01DX005 (ip), vehicle: Klucel (hydroxypropylcellulose) (HPC)
[6] = dose: 200.0 mg/kg/injection, schedule: Q01DX005 (ip), vehicle: Klucel (hydroxypropylcellulose) (HPC)
[7] = dose: 50.0 mg/kg/injection, schedule: Q01DX005 (ip), vehicle: saline with Tween-80
[8] = dose: 100.0 mg/kg/injection, schedule: Q01DX005 (ip), vehicle: saline with Tween-80
[9] = dose: 12.5 mg/kg/injection, schedule: Q04DX003 (ip), vehicle: saline
[10] = dose: 100.0 mg/kg/injection, schedule: Q04DX003 (ip), vehicle: saline
[11] = dose: 50.0 mg/kg/injection, schedule: Q01DX009 (ip), vehicle: saline
[12] = dose: 100.0 mg/kg/injection, schedule: Q01DX009 (ip), vehicle: saline
[13] = dose: 50.0 mg/kg/injection, schedule: Q01DX009 (ip), vehicle: Klucel (hydroxypropylcellulose) (HPC)

SMILES: O=C(Nc1ccc2c(c1)OCO2)O/N=C1\C(=O)Nc2ccccc21
- T/C (dose: 25.0 mg/kg/injection, schedule: Q04DX003 (ip), vehicle: saline with Tween-80): 100 % of control
- T/C (dose: 50.0 mg/kg/injection, schedule: Q04DX003 (ip), vehicle: saline with Tween-80): 90 % of control
- T/C (dose: 100.0 mg/kg/injection, schedule: Q04DX003 (ip), vehicle: saline with Tween-80): 90 % of control

SMILES: O=C(NNc1ccc([N+](=O)[O-])cc1[N+](=O)[O-])Nc1cccc(Cl)c1
- T/C [1]: 91 % of control
- T/C [2]: 99 % of control
- T/C [3]: 102 % of control

SMILES: [CH3][Sn]([CH3])([n]1nnc2ccccc21)[n]1nnc2ccccc21
- T/C (dose: 25.0 mg/kg/injection, schedule: Q01DX005 (ip), vehicle: Klucel (hydroxypropylcellulose) (HPC)): 114 % of control
- T/C [4]: 115 % of control and 121 % of control
- T/C [5]: 112 % of control and 115 % of control
- T/C [6]: 112 % of control

SMILES: CC(C)n1ncc2c(N)ncnc21
- T/C (dose: 3.75 mg/kg/injection, schedule: Q01DX009 (ip), vehicle: saline): 100 % of control
- T/C (dose: 7.5 mg/kg/injection, schedule: Q01DX009 (ip), vehicle: saline): 95 % of control
- T/C (dose: 15.0 mg/kg/injection, schedule: Q01DX009 (ip), vehicle: saline): 104 % of control and 95 % of control

SMILES: CC(C)(C)OC(=O)CN1C(=O)CCC1=O
- T/C [4]: 99 % of control
- T/C [5]: 100 % of control
- T/C [6]: 106 % of control

SMILES: N#COc1ccc(-c2ccccc2)cc1
- T/C (dose: 60.0 mg/kg/injection, schedule: Q01DX005 (ip), vehicle: saline with Tween-80): 90 % of control
- T/C (dose: 120.0 mg/kg/injection, schedule: Q01DX005 (ip), vehicle: saline with Tween-80): 87 % of control
- T/C (dose: 240.0 mg/kg/injection, schedule: Q01DX005 (ip), vehicle: saline with Tween-80): 86 % of control and 90 % of control

SMILES: COc1cc2cnc3c4cc(OC)c(OC)cc4c(O)cc3c2cc1OC
- T/C (dose: 3.12 mg/kg/injection, schedule: Q01DX005 (ip), vehicle: Klucel (hydroxypropylcellulose) (HPC)): 98 % of control
- T/C (dose: 6.25 mg/kg/injection, schedule: Q01DX005 (ip), vehicle: Klucel (hydroxypropylcellulose) (HPC)): 106 % of control
- T/C (dose: 12.5 mg/kg/injection, schedule: Q01DX005 (ip), vehicle: Klucel (hydroxypropylcellulose) (HPC)): 98 % of control

SMILES: O=C1NC(=O)C(=Cc2ccc([N+](=O)[O-])cc2)C(=O)N1
- T/C [4]: 107 % of control
- T/C [5]: 99 % of control
- T/C [6]: 104 % of control

SMILES: Cc1c(-c2ccccc2)sc(/N=C/c2cc(Br)cc(Br)c2O)c1C#N
- T/C (dose: 12.5 mg/kg/injection, schedule: Q01DX009 (ip), vehicle: saline with Tween-80): 99 % of control
- T/C (dose: 25.0 mg/kg/injection, schedule: Q01DX009 (ip), vehicle: saline with Tween-80): 98 % of control
- T/C [1]: 100 % of control
- T/C [2]: 99 % of control

SMILES: O=C(CCCNC(=O)OCc1ccccc1)OCc1ccc2c(c1)C(=O)c1ccccc1C2=O
- T/C (dose: 100.0 mg/kg/injection, schedule: Q01DX001 (ip), vehicle: Klucel (hydroxypropylcellulose) (HPC)): 89 % of control
- T/C (dose: 200.0 mg/kg/injection, schedule: Q01DX001 (ip), vehicle: Klucel (hydroxypropylcellulose) (HPC)): 88 % of control
- T/C (dose: 400.0 mg/kg/injection, schedule: Q01DX001 (ip), vehicle: Klucel (hydroxypropylcellulose) (HPC)): 86 % of control

SMILES: O=C1CC2COc3ccc(OCCN4CCCC4)cc3C2=NN1c1ccccc1 (configuration not stated)
- T/C [7]: 103 % of control
- T/C [8]: 103 % of control

SMILES: Cc1c2cc[n+](C)cc2c(C)c2c1[nH]c1ccc(O)cc12
- T/C (dose: 0.25 mg/kg/injection, schedule: Q04DX003 (ip), vehicle: water): 115 % of control
- T/C (dose: 0.25 mg/kg/injection, schedule: Q04DX003 (iv), vehicle: water): 94 % of control
- T/C (dose: 0.5 mg/kg/injection, schedule: Q04DX003 (iv), vehicle: water): 93 % of control
- T/C (dose: 0.78 mg/kg/injection, schedule: Q04DX003 (ip), vehicle: saline): 152 % of control
- T/C (dose: 1.0 mg/kg/injection, schedule: Q04DX003 (ip), vehicle: water): 151 % of control
- T/C (dose: 1.0 mg/kg/injection, schedule: Q04DX003 (iv), vehicle: water): 100 % of control
- T/C (dose: 1.56 mg/kg/injection, schedule: Q04DX003 (ip), vehicle: saline): 164 % of control
- T/C (dose: 2.0 mg/kg/injection, schedule: Q04DX003 (ip), vehicle: water): 152 % of control and 161 % of control
- T/C (dose: 2.0 mg/kg/injection, schedule: Q04DX003 (iv), vehicle: water): 111 % of control
- T/C (dose: 3.12 mg/kg/injection, schedule: Q04DX003 (ip), vehicle: saline): 172 % of control
- T/C (dose: 3.6 mg/kg/injection, schedule: Q04DX002 (ip), vehicle: saline): 176 % of control
- T/C (dose: 4.0 mg/kg/injection, schedule: Q04DX003 (iv), vehicle: water): 99 % of control
- T/C (dose: 4.5 mg/kg/injection, schedule: Q04DX002 (ip), vehicle: saline): 151 % of control
- T/C (dose: 6.0 mg/kg/injection, schedule: Q04DX002 (ip), vehicle: saline): 188 % of control
- T/C (dose: 6.25 mg/kg/injection, schedule: Q04DX003 (ip), vehicle: saline): 150 % of control
- T/C (dose: 7.5 mg/kg/injection, schedule: Q04DX002 (ip), vehicle: saline): 94 % of control
- T/C [9]: 170 % of control
- T/C (dose: 50.0 mg/kg/injection, schedule: Q04DX003 (ip), vehicle: saline): 93 % of control
- T/C [10]: 94 % of control

SMILES: CN1CCOc2cc3nc4ccccc4nc3cc21
- T/C (dose: 25.0 mg/kg/injection, schedule: Q01DX009 (ip), vehicle: saline): 107 % of control
- T/C [11]: 98 % of control
- T/C [12]: 105 % of control

SMILES: Cc1cc(C)nc(NS(=O)(=O)c2ccc(NC(=S)Nc3ccccc3)cc2)n1
- T/C [7]: 96 % of control
- T/C [8]: 90 % of control
- T/C (dose: 200.0 mg/kg/injection, schedule: Q01DX005 (ip), vehicle: saline with Tween-80): 91 % of control

SMILES: O=C1C(=Cc2ccccc2)C(=O)c2ccccc21
- T/C (dose: 25.0 mg/kg/injection, schedule: Q04DX002 (ip), vehicle: saline with Tween-80): 108 % of control
- T/C (dose: 50.0 mg/kg/injection, schedule: Q04DX002 (ip), vehicle: saline with Tween-80): 109 % of control
- T/C (dose: 100.0 mg/kg/injection, schedule: Q04DX002 (ip), vehicle: saline with Tween-80): 109 % of control
- T/C (dose: 200.0 mg/kg/injection, schedule: Q04DX002 (ip), vehicle: saline with Tween-80): 107 % of control
- T/C (dose: 400.0 mg/kg/injection, schedule: Q04DX002 (ip), vehicle: saline with Tween-80): 112 % of control

SMILES: CC(C)(C)C(=O)OCCOCCOC(=O)c1ccccc1
- T/C [13]: 95 % of control
- T/C (dose: 100.0 mg/kg/injection, schedule: Q01DX009 (ip), vehicle: Klucel (hydroxypropylcellulose) (HPC)): 104 % of control
- T/C (dose: 200.0 mg/kg/injection, schedule: Q01DX009 (ip), vehicle: Klucel (hydroxypropylcellulose) (HPC)): 102 % of control

SMILES: COCC(=O)c1ccc([N+](=O)[O-])cc1
- T/C [11]: 98 % of control
- T/C [12]: 103 % of control and 104 % of control
- T/C (dose: 200.0 mg/kg/injection, schedule: Q01DX009 (ip), vehicle: saline): 105 % of control and 111 % of control

SMILES: CC1=CCC(C(C)C)C=C1 (configuration not stated)
- T/C [2]: 100 % of control
- T/C [10]: 105 % of control
- T/C (dose: 200.0 mg/kg/injection, schedule: Q04DX003 (ip), vehicle: saline): 100 % of control
- T/C (dose: 400.0 mg/kg/injection, schedule: Q04DX003 (ip), vehicle: saline): 105 % of control

SMILES: CCCCN1C(=O)/C(=C/c2ccc(OC)c(OC)c2OC)SC1=S
- T/C [1]: 93 % of control
- T/C [2]: 92 % of control
- T/C [3]: 94 % of control

SMILES: C=C1CC(O)C2C(=C)C(=O)OC2C2C(C)C(=O)CC12 (configuration not stated)
- T/C (dose: 6.25 mg/kg/injection, schedule: Q01DX009 (ip), vehicle: Klucel (hydroxypropylcellulose) (HPC)): 112 % of control
- T/C (dose: 12.5 mg/kg/injection, schedule: Q01DX009 (ip), vehicle: Klucel (hydroxypropylcellulose) (HPC)): 107 % of control
- T/C (dose: 25.0 mg/kg/injection, schedule: Q01DX009 (ip), vehicle: Klucel (hydroxypropylcellulose) (HPC)): 115 % of control
- T/C [13]: 116 % of control

SMILES: O=NN1CCNC1=O
- T/C (dose: 1.5 mg/kg/injection, schedule: Q04DX003 (ip), vehicle: saline): 113 % of control
- T/C (dose: 6.25 mg/kg/injection, schedule: Q01DX009 (ip), vehicle: saline): 168 % of control
- T/C (dose: 12.5 mg/kg/injection, schedule: Q01DX009 (ip), vehicle: saline): 245 % of control
- T/C [9]: 163 % of control
- T/C (dose: 16.5 mg/kg/injection, schedule: Q04DX003 (ip), vehicle: saline): 187 % of control
- T/C (dose: 25.0 mg/kg/injection, schedule: Q04DX003 (ip), vehicle: saline): 187 % of control and 213 % of control
